# PubChem BioAssay AID330 (DTP/NCI, 2004)
# Several values for one entry are separate records, joined by “and”; a condition that tells them apart may be missing. Equal entries are not always repeated. Toxic doses and inconclusive results are not listed.
# Tested on: P388 leukemia ip, CD2F1 mice, survival T/C
# Assay: NCI In Vivo Anticancer Drug Screen. Data for tumor model P388 Leukemia (intraperitoneal) in CD2F1 (CDF1) mice
# Conditions: endpoint: median survival time, higher = longer survival
# How it was run: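 Mice carrying the transplanted tumor received test compound or vehicle. Survival was recorded in each group, and the value is the treated-group measurement divided by that of the vehicle-treated control group.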
# [1] = dose: 240.0 mg/kg/injection, schedule: Q01DX005 (ip), vehicle: saline with Tween-80
# [2] = dose: 60.0 mg/kg/injection, schedule: Q01DX005 (ip), vehicle: saline with Tween-80
# [3] = dose: 120.0 mg/kg/injection, schedule: Q01DX005 (ip), vehicle: saline with Tween-80
smiles,measurement,setting,value
O=C1CC2(C(=O)O1)C1C(=O)OC(=O)C1C1c3ccccc3C=NN12 (stereo unspecified),T/C,"dose: 50.0 mg/kg/injection, schedule: Q01DX009 (ip), vehicle: saline with Tween-80",98 % of control
same,T/C,"dose: 100.0 mg/kg/injection, schedule: Q01DX009 (ip), vehicle: saline with Tween-80",93 % of control
same,T/C,"dose: 200.0 mg/kg/injection, schedule: Q01DX009 (ip), vehicle: saline with Tween-80",100 % of control
O=C(/C=C/c1ccc(O)cc1)OCC1OC(Oc2cc(O)c3c(c2)OC(c2ccc(O)cc2)CC3=O)C(O)C(O)C1O (stereo unspecified),T/C,"dose: 100.0 mg/kg/injection, schedule: Q04DX002 (ip), vehicle: saline",107 % of control
same,T/C,"dose: 200.0 mg/kg/injection, schedule: Q04DX002 (ip), vehicle: saline",94 % of control
same,T/C,"dose: 400.0 mg/kg/injection, schedule: Q04DX002 (ip), vehicle: saline",107 % of control
COc1ccc(C2c3cc4c(cc3OC(N3CCCC3)C2C)OCO4)cc1 (stereo unspecified),T/C,"dose: 7.5 mg/kg/injection, schedule: Q01DX005 (ip), vehicle: saline with Tween-80",90 % of control
same,T/C,"dose: 15.0 mg/kg/injection, schedule: Q01DX005 (ip), vehicle: saline with Tween-80",90 % of control
same,T/C,"dose: 30.0 mg/kg/injection, schedule: Q01DX005 (ip), vehicle: saline with Tween-80",94 % of control
same,T/C,[1],90 % of control
CNC(=O)OCc1c(COC(=O)NC)c(-c2ccccc2)n2c1CCC2,T/C,"dose: 50.0 mg/kg/injection, schedule: Q01DX009 (ip), vehicle: Klucel (hydroxypropylcellulose) (HPC)",124 % of control
same,T/C,"dose: 100.0 mg/kg/injection, schedule: Q01DX009 (ip), vehicle: Klucel (hydroxypropylcellulose) (HPC)",124 % of control
COc1ccc(C2C3=C(CC(C)(C)CC3=O)Oc3cc4c(cc32)OCO4)c(OC)c1 (stereo unspecified),T/C,[2],99 % of control
same,T/C,[3],93 % of control
same,T/C,[1],92 % of control
CC([NH-])C[NH-].[Cl][Pt+2][Cl] (stereo unspecified),T/C,"dose: 3.12 mg/kg/injection, schedule: Q01DX001 (ip), vehicle: Klucel (hydroxypropylcellulose) (HPC)",157 % of control
same,T/C,"dose: 12.5 mg/kg/injection, schedule: Q01DX001 (ip), vehicle: Klucel (hydroxypropylcellulose) (HPC)",163 % of control
CCC(C)C(N)C(=O)NC(CC(N)=O)C(=O)NC(CC(C)C)C(=O)NC(CCCCN)C(=O)NC(C)C(=O)NC(CC(C)C)C(=O)NC(C)C(=O)NC(C)C(=O)NC(CC(C)C)C(=O)NC(C)C(=O)NC(CCCCN)C(=O)NC(CCCCN)C(=O)NC(C(=O)NC(CC(C)C)C(N)=O)C(C)CC (stereo unspecified),T/C,"dose: 1.56 mg/kg/injection, schedule: Q01DX005 (ip), vehicle: Klucel (hydroxypropylcellulose) (HPC)",102 % of control
same,T/C,"dose: 3.12 mg/kg/injection, schedule: Q01DX005 (ip), vehicle: Klucel (hydroxypropylcellulose) (HPC)",100 % of control
same,T/C,"dose: 6.25 mg/kg/injection, schedule: Q01DX005 (ip), vehicle: Klucel (hydroxypropylcellulose) (HPC)",95 % of control
same,T/C,"dose: 12.5 mg/kg/injection, schedule: Q01DX005 (ip), vehicle: Klucel (hydroxypropylcellulose) (HPC)",94 % of control and 96 % of control
O=C(Nc1ccccc1)Nc1nnnc2ccccc12,T/C,"dose: 100.0 mg/kg/injection, schedule: Q01DX001 (ip), vehicle: saline with Tween-80",100 % of control
same,T/C,"dose: 200.0 mg/kg/injection, schedule: Q01DX001 (ip), vehicle: saline with Tween-80",95 % of control
same,T/C,"dose: 400.0 mg/kg/injection, schedule: Q01DX001 (ip), vehicle: saline with Tween-80",90 % of control
O=C1c2ccccc2C(=O)c2c1ccc1c2CCC1,T/C,"dose: 7.5 mg/kg/injection, schedule: Q01DX009 (ip), vehicle: saline with Tween-80",97 % of control
same,T/C,"dose: 15.0 mg/kg/injection, schedule: Q01DX009 (ip), vehicle: saline with Tween-80",95 % of control
same,T/C,"dose: 30.0 mg/kg/injection, schedule: Q01DX009 (ip), vehicle: saline with Tween-80",105 % of control
C=CCOC(=O)OCCO,T/C,"dose: 60.0 mg/kg/injection, schedule: Q01DX005 (ip), vehicle: saline",101 % of control
same,T/C,"dose: 120.0 mg/kg/injection, schedule: Q01DX005 (ip), vehicle: saline",108 % of control
same,T/C,"dose: 240.0 mg/kg/injection, schedule: Q01DX005 (ip), vehicle: saline",99 % of control
COc1ccc(OC)c(NC(=O)C2=C(C)NC(C)=C(C(=O)Nc3cc(OC)ccc3OC)C2c2cccc([N+](=O)[O-])c2)c1,T/C,"dose: 7.5 mg/kg/injection, schedule: Q01DX005 (ip), vehicle: Klucel (hydroxypropylcellulose) (HPC)",101 % of control
same,T/C,"dose: 15.0 mg/kg/injection, schedule: Q01DX005 (ip), vehicle: Klucel (hydroxypropylcellulose) (HPC)",94 % of control
same,T/C,"dose: 30.0 mg/kg/injection, schedule: Q01DX005 (ip), vehicle: Klucel (hydroxypropylcellulose) (HPC)",92 % of control
Cc1ccc(NC(=O)N(C)C)cc1NC(=O)N(C)C,T/C,[2],100 % of control
same,T/C,[3],100 % of control
same,T/C,[1],101 % of control
C[C@@]1(N=Cc2ccccc2)C(=O)NC(=O)C2=CN(Cc3ccccc3)C=C[C@@H]21,T/C,"dose: 50.0 mg/kg/injection, schedule: Q01DX005 (ip), vehicle: Klucel (hydroxypropylcellulose) (HPC)",102 % of control
same,T/C,"dose: 100.0 mg/kg/injection, schedule: Q01DX005 (ip), vehicle: Klucel (hydroxypropylcellulose) (HPC)",99 % of control
same,T/C,"dose: 200.0 mg/kg/injection, schedule: Q01DX005 (ip), vehicle: Klucel (hydroxypropylcellulose) (HPC)",89 % of control
CN1C(c2ccccc2)CC(C)(O)CC1c1ccccc1 (stereo unspecified),T/C,[2],97 % of control
same,T/C,[3],98 % of control
